Results as given in patent US10144709B2, “Piperidine compounds, pharmaceutical composition comprising the same and its use” (SK BIOPHARMACEUTICALS CO., LTD., priority 2008, dated 2018).
Counter-ions that a name gives are not always drawn.

system: ICR CD strain male mice; assay: Gastric emptying enhancing activity (phenol red meal); type: in vivo; conditions: Mus musculus, ip, 0.25 h, 3.0 mg/kg i.p., gastric emptying at 15 min after test meal, increase vs vehicle
Description: ICR CD strain male mice (body weight, 25˜30 g; 8 mice per one group) were fasted for 24 h but allowed free access to water until 3 hours before the test.
Compounds to be tested for promoting GI motility were injected intraperitoneally or given orally at 30 min or 60 min prior to phenol red meal administration. Fifteen (15) min after administration of a test meal (0.5% Phenol red in 1.5% methylcellulose solution), mice were sacrificed and the stomach (pylorus˜cardia) was removed and collected to vial. The stomach was homogenized with its contents in 0.1N NaOH and the mixture was centrifuged (700*g) for 20 min. 2.5 mL of the supernatant was added to 0.25 mL of trichloroacetic acid solution (20% w/v) to precipitate proteins. After centrifuging (2600*g) for 20 min, 0.5 mL of the supernatant was added to 0.25 mL of 1N NaOH. The mixture was homogenized and its absorbance (Abs) was read at 560 nm.
In each experiment, one group was sacrificed just after the administration of the test meal and was considered as a standard (0% emptying). The gastric emptying (GE) at the 15 min period was calculated according to the following formula. GE (%)=(1−Abstest/Absstandard)×100 Increase (%)=(GE %test−GE %vehicle)/GE %vehicle*100

First: COc1cc(N)c(Cl)cc1C(=O)NCC1CCN(CC(O)COc2ccc(F)cc2)CC1 (centres unmarked) [Example 72, 4-amino-5-chloro-N-[[1-[3-(4-fluorophenoxy)-2-hydroxypropyl]piperidin-4-yl]methyl]-2-methoxybenzamide; hydrochloride]
Second: COc1cc(N)c(Cl)cc1C(=O)NCC1CCN(CC(O)COc2ccc(C(F)(F)F)cc2)CC1 (centres unmarked) [Example 83, 4-amino-5-chloro-N-[[1-[2-hydroxy-3-[4-(trifluoromethyl)phenoxy]propyl]piperidin-4-yl]methyl]-2-methoxybenzamide; hydrochloride]
The change in vivo at 3 mg/kg of the first is higher: 48.1% for the first, 42.5% for the second.

Compared with `Cc1ccccc1OCC(CN1CCC(CNC(=O)n2c(=O)n(C(C)C)c3ccccc32)CC1)NC(=O)O` (centres unmarked) [Example 123, [1-(2-methylphenoxy)-3-[4-[[(2-oxo-3-propan-2-ylbenzimidazole-1-carbonyl)amino]methyl]piperidin-1-yl]propan-2-yl]carbamate; hydrochloride], `Cn1c(=O)n(C(=O)NCC2CCN(CC(COc3ccccc3)NC(=O)O)CC2)c2ccccc21` (centres unmarked) [Example 126, [1-[4-[[(3-methyl-2-oxobenzimidazole-1-carbonyl)amino]methyl]piperidin-1-yl]-3-phenoxypropan-2-yl]carbamate; hydrochloride] is higher in change in vivo at 3 mg/kg: 56.8% for the first, 93.3% for the second.

Compared with `COc1cc(N)c(Cl)cc1C(=O)NCC1CCN(CCC(O)c2ccc(C(C)C)cc2)CC1` (centres unmarked) [Example 48, 4-amino-5-chloro-N-[[1-[3-(4-isopropylphenyl)-3-hydroxypropyl]piperidin-4-yl]methyl]-2-methoxybenzamide; hydrochloride], `COc1cc(N)c(Cl)cc1C(=O)NCC1CCN(CCC(O)c2ccc(Cl)cc2)CC1` (centres unmarked) [Example 38, 4-amino-5-chloro-N-[[1-[3-(4-chlorophenyl)-3-hydroxypropyl]piperidin-4-yl]methyl]-2-methoxybenzamide; hydrochloride] is higher in change in vivo at 3 mg/kg: 3.5% for the first, 49.1% for the second.

`COc1cc(N)c(Cl)cc1C(=O)NCC1CCN(CC(NC(=O)O)c2ccc(C)cc2)CC1` (centres unmarked) [Example 24, [2-[4-[[(4-amino-5-chloro-2-methoxybenzoyl)amino]methyl]piperidin-1-yl]-1-(4-methylphenyl)ethyl]carbamate; hydrochloride] and `COc1cc(N)c(Cl)cc1C(=O)NCC1CCN(CC(O)c2ccc(C)cc2)CC1` (centres unmarked) [Example 3, 4-amino-5-chloro-N-[[1-[2-hydroxy-2-(4-methylphenyl)ethyl]piperidin-4-yl]methyl]-2-methoxybenzamide; hydrochloride] are the same in change in vivo at 3 mg/kg: 71.1% for the first, 71.1% for the second.

First: CC(C)n1c(=O)n(C(=O)NCC2CCN(CCC(O)c3ccccc3)CC2)c2ccccc21 (centres unmarked) [Example 136, N-[[1-(3-hydroxy-3-phenylpropyl)piperidin-4-yl]methyl]-2-oxo-3-propan-2-ylbenzimidazole-1-carboxamide; hydrochloride]
Second: COc1cc(N)c(Cl)cc1C(=O)NCC1CCN(CCC(O)c2ccc(C)cc2)CC1 (centres unmarked) [Example 39, 4-amino-5-chloro-N-[[1-[3-hydroxy-3-(4-methylphenyl)propyl]piperidin-4-yl]methyl]-2-methoxybenzamide; hydrochloride]
The change in vivo at 3 mg/kg of the first is higher: 64.1% for the first, 40% for the second.

Going from `COc1cc(N)c(Cl)cc1C(=O)NCC1CCN(CCC(NC(=O)O)c2ccc(Cl)cc2Cl)CC1` (centres unmarked) [Example 60, [3-[4-[[(4-amino-5-chloro-2-methoxybenzoyl)amino]methyl]piperidin-1-yl]-1-(2,4-dichlorophenyl)propyl]carbamate; hydrochloride] to `COc1cc(N)c(Cl)cc1C(=O)NCC1CCN(CCC(NC(=O)O)c2ccc(Cl)c(Cl)c2)CC1` (centres unmarked) [Example 61, [3-[4-[[(4-amino-5-chloro-2-methoxybenzoyl)amino]methyl]piperidin-1-yl]-1-(3,4-dichlorophenyl)propyl]carbamate; hydrochloride], the change in vivo at 3 mg/kg rises from 14.2% to 44.3%.

First: COc1cc(N)c(Cl)cc1C(=O)NCC1CCN(CCC(O)c2ccc(F)cc2)CC1 (centres unmarked) [Example 37, 4-amino-5-chloro-N-[[1-[3-(4-fluorophenyl)-3-hydroxypropyl]piperidin-4-yl]methyl]-2-methoxybenzamide; hydrochloride]
Second: COc1cc(N)c(Cl)cc1C(=O)NCC1CCN(CCC(O)Cc2ccc(F)cc2)CC1 (centres unmarked) [Example 51, 4-amino-5-chloro-N-[[1-[4-(4-fluorophenyl)-3-hydroxybutyl]piperidin-4-yl]methyl]-2-methoxybenzamide; hydrochloride]
The change in vivo at 3 mg/kg of the first is lower: 70.7% for the first, 122% for the second.

First: COc1cc(N)c(Cl)cc1C(=O)NCC1CCN(CCC(O)c2ccc(Cl)c(Cl)c2)CC1 (centres unmarked) [Example 47, 4-amino-5-chloro-N-[[1-[3-(3,4-dichlorophenyl)-3-hydroxypropyl]piperidin-4-yl]methyl]-2-methoxybenzamide; hydrochloride]
Second: COc1cc(N)c(Cl)cc1C(=O)NCC1CCN(CCC(O)c2ccccc2Cl)CC1 (centres unmarked) [Example 41, 4-amino-5-chloro-N-[[1-[3-(2-chlorophenyl)-3-hydroxypropyl]piperidin-4-yl]methyl]-2-methoxybenzamide; hydrochloride]
The change in vivo at 3 mg/kg of the first is higher: 25.9% for the first, 24.3% for the second.

Compared with `COc1cc(N)c(Cl)cc1C(=O)NCC1CCN(CCC(O)c2ccccc2F)CC1` (centres unmarked) [Example 43, 4-amino-5-chloro-N-[[1-[3-(2-fluorophenyl)-3-hydroxypropyl]piperidin-4-yl]methyl]-2-methoxybenzamide; hydrochloride], `COc1cc(N)c(Cl)cc1C(=O)NCC1CCN(CC(O)c2ccccc2Cl)CC1` (centres unmarked) [Example 13, 4-amino-5-chloro-N-[[1-[2-(2-chlorophenyl)-2-hydroxyethyl]piperidin-4-yl]methyl]-2-methoxybenzamide; hydrochloride] is lower in change in vivo at 3 mg/kg: 46.1% for the first, 14% for the second.

Compared with `COc1cc(N)c(Cl)cc1C(=O)NCC1CCN(CC(O)c2ccc(C#N)cc2)CC1` (centres unmarked) [Example 5, 4-amino-5-chloro-N-[[1-[2-(4-cyanophenyl)-2-hydroxyethyl]piperidin-4-yl]methyl]-2-methoxybenzamide; hydrochloride], `COc1ccc(C(O)CN2CCC(CNC(=O)c3cc(Cl)c(N)cc3OC)CC2)cc1` (centres unmarked) [Example 4, 4-amino-5-chloro-N-[[1-[2-hydroxy-2-(4-methoxyphenyl)ethyl]piperidin-4-yl]methyl]-2-methoxybenzamide; hydrochloride] is lower in change in vivo at 3 mg/kg: 76.1% for the first, 74.1% for the second.

Compared with `COc1cc(N)c(Cl)cc1C(=O)NCC1CCN(CC(COc2ccc(C(F)(F)F)cc2)NC(=O)O)CC1` (centres unmarked) [Example 100, [1-[4-[[(4-amino-5-chloro-2-methoxybenzoyl)amino]methyl]piperidin-1-yl]-3-[4-(trifluoromethyl)phenoxy]propan-2-yl]carbamate; hydrochloride], `COc1cc(N)c(Cl)cc1C(=O)NCC1CCN(CC(COc2ccc(Cl)cc2Cl)NC(=O)O)CC1` (centres unmarked) [Example 96, [1-[4-[[(4-amino-5-chloro-2-methoxybenzoyl)amino]methyl]piperidin-1-yl]-3-(2,4-dichlorophenoxy)propan-2-yl]carbamate; hydrochloride] is higher in change in vivo at 3 mg/kg: 46.1% for the first, 105% for the second.

Compared with `COc1cc(N)c(Cl)cc1C(=O)NCC1CCN(CC(COc2ccc(F)cc2)OC(=O)N2CC(C)CC(C)C2)CC1` (centres unmarked) [Example 89, [1-[4-[[(4-amino-5-chloro-2-methoxybenzoyl)amino]methyl]piperidin-1-yl]-3-(4-fluorophenoxy)propan-2-yl]3,5-dimethylpiperidine-1-carboxylate; hydrochloride], `COc1cc(N)c(Cl)cc1C(=O)NCC1CCN(CCC(NC(=O)O)c2ccc(F)cc2)CC1` (centres unmarked) [Example 54, [3-[4-[[(4-amino-5-chloro-2-methoxybenzoyl)amino]methyl]piperidin-1-yl]-1-(4-fluorophenyl)propyl]carbamate; hydrochloride] is higher in change in vivo at 3 mg/kg: 45.3% for the first, 89.2% for the second.

First: COc1cc(N)c(Cl)cc1C(=O)NCC1CCN(CC(O)c2ccccc2OC)CC1 (centres unmarked) [Example 8, 4-amino-5-chloro-N-[[1-[2-hydroxy-2-(2-methoxyphenyl)ethyl]piperidin-4-yl]methyl]-2-methoxybenzamide; hydrochloride]
Second: COc1cc(N)c(Cl)cc1C(=O)NCC1CCN(CC(O)c2ccc(F)c(F)c2)CC1 (centres unmarked) [Example 17, 4-amino-5-chloro-N-[[1-[2-(3,4-difluorophenyl)-2-hydroxyethyl]piperidin-4-yl]methyl]-2-methoxybenzamide; hydrochloride]
The change in vivo at 3 mg/kg of the first is higher: 51.6% for the first, 22.1% for the second.

Compared with `COc1cc(N)c(Cl)cc1C(=O)NCC1CCN(CC(Cc2ccccc2)NC(=O)O)CC1` (centres unmarked) [Example 103, [1-[4-[[(4-amino-5-chloro-2-methoxybenzoyl)amino]methyl]piperidin-1-yl]-3-phenylpropan-2-yl]carbamate; hydrochloride], `COc1cc(N)c(Cl)cc1C(=O)NCC1CCN(CCC(NC(=O)O)c2ccccc2Cl)CC1` (centres unmarked) [Example 56, [3-[4-[[(4-amino-5-chloro-2-methoxybenzoyl)amino]methyl]piperidin-1-yl]-1-(2-chlorophenyl)propyl]carbamate; hydrochloride] is higher in change in vivo at 3 mg/kg: 88.8% for the first, 135% for the second.

In the case of `COc1cccc(C(CCN2CCC(CNC(=O)c3cc(Cl)c(N)cc3OC)CC2)NC(=O)O)c1` (centres unmarked) [Example 63, [3-[4-[[(4-amino-5-chloro-2-methoxybenzoyl)amino]methyl]piperidin-1-yl]-1-(3-methoxyphenyl)propyl]carbamate; hydrochloride], the change in vivo at 3 mg/kg is reported as 24.4%.
